Results taken from patent publication US10662229B2, “Spider venom peptides and methods of use for modulating sodium channels” (priority 2016, dated 2020).

Columns and labels:
Format in all cases: in vivo
[1] = system: motor performance of mice; test: Motor assessment, Parallel Rod Floor Test; details: i.p.; Pnc1a 3 mg/kg, PF-04856254 30 mg/kg, CNV1014802 30 mg/kg, GpTx-1 0.1 mg/kg, gabapentin 100 mg/kg
Protocol: (§1) For behavioural assessment adult male C57BL/6J mice aged 6-8 weeks were used. Animals were housed in groups of 3 or 4 per cage, under 12 h light-dark cycles and had standard rodent chow and water ad libitum.
Motor performance was assessed using the Parallel Rod Floor Test and analyzed using ANY-Maze software (Stoelting Co., version 4.70, Wood Dale, Ill., USA). […] Mice were then placed in the Parallel Rod Floor Test apparatus, and the distance travelled (m) and number of foot slips were recorded over 1 min using the ANY-Maze software. The ataxia index was calculated by dividing the number of foot slips by the distance travelled (m).

[2] = system: carrageenan-induced mechanical and thermal allodynia in mice; test: Carrageenan model; details: naloxone methiodide 100 mg/kg i.p.
Protocol: as §1
λ-Carrageenan (Sigma-Aldrich Co.) was dissolved in phosphate buffered saline to a 1% w/v solution (prepared 24 h prior) and administered by intraplantar injection to the left hind paw of mice in a volume of 40 μL under light isoflurane (3%) anaesthesia. Behavioural assessment (mechanical and thermal thresholds) was performed 3 hours after injection of carrageenan.
Mechanical allodynia was assessed using an electronic von Frey apparatus (MouseMet Electronic von Frey, TopCat Metrology Ltd, United Kingdom). […] The force that elicited paw withdrawal was calculated using the MouseMet Software. The paw withdrawal force (PWF) was determined from the average of three tests, separated by at least 2 min.
Mice were habituated in individual mouse runs for at least 5 min prior to testing. […] Removal of the paw and/or the probe by the investigator terminates heating, and triggers display of the withdrawal temperature on the readout, without the need for the investigator to manually stop the heating or record the temperature, until the reset button is pressed. The temperature that elicited a paw withdrawal, known as the paw withdrawal temperature (PWT), was determined by a single test.

[3] = system: OD1-induced spontaneous pain behaviours in mice; test: OD1 model of spontaneous pain behaviours; details: intraplantar 1 μM, co-injected with OD1
Protocol: as §1
OD1 was diluted in phosphate-buffered saline/0.1% BSA (300 nM) and administered by shallow subcutaneous (intraplantar) injection to the left hind paw of mice in a volume of 40 μL under light isoflurane (3%) anesthesia. Mice were then placed individually into polyvinyl boxes (10×10×10 cm), and spontaneous pain behavior (licks and flinches) was counted by an investigator unaware of the treatments received from video recordings for 10 min post-injection.

## NC(=O)[C@@H]1CC[C@H](c2ccc(OCc3ccccc3F)cc2)N1 [CNV1014802, raxatrigine]
[1]
  ataxia index (foot slips per metre travelled) compared to vehicle control: no significant effect

## NCC1(CC(=O)O)CCCCC1 [gabapentin]
[1]
  ataxia index (foot slips per metre travelled) compared to vehicle control: significant increase

## C=CC[N+]1(C)CC[C@]23c4c5ccc(O)c4O[C@H]2C(=O)CC[C@@]3(O)[C@H]1C5 (some centres unmarked) [naloxone methiodide]
[2]
  analgesic effects of the Pnc1a/oxycodone combination on mechanical allodynia: reversed
  analgesic effects of the Pnc1a/oxycodone combination on thermal allodynia: reversed

## ProTxII: Nav1.7 selective inhibitor (Peptides International) [reference compound]
[3]
  OD1-induced pain behaviours, compared to an equivalent concentration of Pnc1a: only partially reversed
